Earlier results as cited in US4764376A, “Method of inhibiting aromatase” (Eli Lilly and Company, priority 1984, dated 1988).

System: breast cancer
Details: known aromatase inhibitors; result in words

CCC1(c2ccc(N)cc2)CCC(=O)NC1=O (centres unmarked) [aminoglutethimide]
beneficial effect in treatment of breast cancer: beneficial effect

C[C@]12C=CC(=O)C=C1CC[C@@H]1[C@@H]2CC[C@]2(C)OC(=O)CC[C@@H]12 [testolactone]
beneficial effect in treatment of breast cancer: beneficial effect
